From US11492335B2, “Aryl or heteroaryl triazolone derivatives or salts thereof, or pharmaceutical compositions comprising the same” (YUHAN CORPORATION, priority 2018, dated 2022) come the findings set out here.

Molecules are shown by their SMILES. Where a name gives a salt, the structure may show the parent alone. Read-outs that look alike come from different tables or passages of the source.

Holding throughout (assay type): biochemical
For assay [1], the target named is T1, recombinant human MAO-B (monoamine oxidase-B) (Homo sapiens, UniProt P27338).
T1 construct: purchased Sigma-Aldrich
T1 sequence (P27338 1-520): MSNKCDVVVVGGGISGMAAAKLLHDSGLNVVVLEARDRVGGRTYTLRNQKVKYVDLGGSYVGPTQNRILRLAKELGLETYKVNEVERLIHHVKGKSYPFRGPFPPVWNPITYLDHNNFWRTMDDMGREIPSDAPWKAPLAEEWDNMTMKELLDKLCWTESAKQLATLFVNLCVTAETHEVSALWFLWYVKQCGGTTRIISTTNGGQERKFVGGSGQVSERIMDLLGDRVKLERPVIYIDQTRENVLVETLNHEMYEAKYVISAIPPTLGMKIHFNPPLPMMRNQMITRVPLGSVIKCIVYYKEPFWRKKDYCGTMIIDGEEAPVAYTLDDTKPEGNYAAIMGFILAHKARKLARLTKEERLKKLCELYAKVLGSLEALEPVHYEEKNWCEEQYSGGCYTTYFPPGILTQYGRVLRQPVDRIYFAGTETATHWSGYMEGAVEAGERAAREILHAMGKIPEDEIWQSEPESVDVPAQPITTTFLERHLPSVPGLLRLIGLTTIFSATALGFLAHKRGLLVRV
Description: Activity on recombinant human MAO-B, Amplex Red method, 1 mM benzylamine substrate. Conditions: read-out: Inhibitory Activity (IC50, nM) MAO-B. In outline:
(§1)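 Fluorescence (544/590 nm) of resorufin formed from Amplex Red by HRP and enzyme-generated H2O2 was followed over 1-2 h. Substrates were 0.5 mM tyramine for MAO-A and 1 mM benzylamine for MAO-B; compounds were preincubated with enzyme for 30 min at 37° C. IC50 came from four-parameter logistic fitting of signal-rate inhibition.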

A further assay has as its target T2, recombinant human VAP-1 (Homo sapiens, UniProt Q16853).
T2 construct: purchased R&D systems
T2 sequence (Q16853 1-763): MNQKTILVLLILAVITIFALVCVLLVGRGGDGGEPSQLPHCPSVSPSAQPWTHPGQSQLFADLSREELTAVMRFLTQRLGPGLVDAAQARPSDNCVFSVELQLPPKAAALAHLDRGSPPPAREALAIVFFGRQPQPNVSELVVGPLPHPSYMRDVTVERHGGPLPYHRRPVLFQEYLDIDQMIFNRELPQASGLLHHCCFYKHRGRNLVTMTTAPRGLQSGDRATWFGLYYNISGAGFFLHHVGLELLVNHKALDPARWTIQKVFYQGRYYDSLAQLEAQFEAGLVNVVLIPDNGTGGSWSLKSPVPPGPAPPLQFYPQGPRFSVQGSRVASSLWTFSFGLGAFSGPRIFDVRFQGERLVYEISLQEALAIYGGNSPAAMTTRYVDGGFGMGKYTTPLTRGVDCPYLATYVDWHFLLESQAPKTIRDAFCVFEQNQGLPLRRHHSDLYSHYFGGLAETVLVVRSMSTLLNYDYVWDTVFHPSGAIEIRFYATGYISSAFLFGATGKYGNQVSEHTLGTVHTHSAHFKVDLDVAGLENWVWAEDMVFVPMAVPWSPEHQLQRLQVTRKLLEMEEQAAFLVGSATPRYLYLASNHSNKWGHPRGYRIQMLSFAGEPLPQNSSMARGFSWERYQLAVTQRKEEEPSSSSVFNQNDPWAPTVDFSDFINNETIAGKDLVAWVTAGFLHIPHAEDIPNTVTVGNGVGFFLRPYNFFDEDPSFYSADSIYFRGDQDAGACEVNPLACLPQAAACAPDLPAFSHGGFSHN
The experiment in a line: Activity on recombinant human VAP-1, Amplex Red HRP-coupled hydrogen peroxide assay, benzylamine substrate. Conditions: recombinant human VAP-1, benzylamine substrate, read-out: Inhibitory Activity (IC50, nM) human VAP-1. In outline:
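Fluorescence of resorufin formed from H2O2 (ex 544 nm, em 590 nm) was tracked for 1-2 h after adding 1 mM benzylamine, 200 uM Amplex Red and 1 U/mL HRP to enzyme pretreated with compound for 30 min at 37 °C. IC50 values derive from four-variable logistic fits.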

The target of assay [2] is T3, recombinant human MAO-A (monoamine oxidase-A) (Homo sapiens, UniProt P21397).
T3 construct: purchased Sigma-Aldrich
T3 sequence (P21397 1-527): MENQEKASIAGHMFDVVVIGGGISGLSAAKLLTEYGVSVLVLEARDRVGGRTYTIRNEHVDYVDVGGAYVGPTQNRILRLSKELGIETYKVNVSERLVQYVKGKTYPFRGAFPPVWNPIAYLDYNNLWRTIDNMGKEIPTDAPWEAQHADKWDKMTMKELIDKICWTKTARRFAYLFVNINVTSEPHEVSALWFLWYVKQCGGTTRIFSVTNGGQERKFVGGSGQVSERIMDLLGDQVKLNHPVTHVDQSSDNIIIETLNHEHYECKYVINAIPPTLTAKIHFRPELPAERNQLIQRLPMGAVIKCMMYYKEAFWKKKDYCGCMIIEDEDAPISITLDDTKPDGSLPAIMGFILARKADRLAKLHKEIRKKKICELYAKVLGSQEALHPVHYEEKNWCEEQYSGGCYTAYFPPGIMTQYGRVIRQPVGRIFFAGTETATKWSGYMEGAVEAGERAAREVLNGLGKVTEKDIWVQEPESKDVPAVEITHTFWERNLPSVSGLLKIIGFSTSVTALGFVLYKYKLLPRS
The experiment in a line: Activity on recombinant human MAO-A, Amplex Red method, 0.5 mM tyramine substrate. Conditions: read-out: Inhibitory Activity (IC50, nM) MAO-A. A digest of the protocol:
as §1

Assay [3] addresses T4, recombinant human DAO (diamine oxidase) (Homo sapiens, UniProt P19801).
T4 construct: purchased R&D systems
T4 sequence (P19801 20-751): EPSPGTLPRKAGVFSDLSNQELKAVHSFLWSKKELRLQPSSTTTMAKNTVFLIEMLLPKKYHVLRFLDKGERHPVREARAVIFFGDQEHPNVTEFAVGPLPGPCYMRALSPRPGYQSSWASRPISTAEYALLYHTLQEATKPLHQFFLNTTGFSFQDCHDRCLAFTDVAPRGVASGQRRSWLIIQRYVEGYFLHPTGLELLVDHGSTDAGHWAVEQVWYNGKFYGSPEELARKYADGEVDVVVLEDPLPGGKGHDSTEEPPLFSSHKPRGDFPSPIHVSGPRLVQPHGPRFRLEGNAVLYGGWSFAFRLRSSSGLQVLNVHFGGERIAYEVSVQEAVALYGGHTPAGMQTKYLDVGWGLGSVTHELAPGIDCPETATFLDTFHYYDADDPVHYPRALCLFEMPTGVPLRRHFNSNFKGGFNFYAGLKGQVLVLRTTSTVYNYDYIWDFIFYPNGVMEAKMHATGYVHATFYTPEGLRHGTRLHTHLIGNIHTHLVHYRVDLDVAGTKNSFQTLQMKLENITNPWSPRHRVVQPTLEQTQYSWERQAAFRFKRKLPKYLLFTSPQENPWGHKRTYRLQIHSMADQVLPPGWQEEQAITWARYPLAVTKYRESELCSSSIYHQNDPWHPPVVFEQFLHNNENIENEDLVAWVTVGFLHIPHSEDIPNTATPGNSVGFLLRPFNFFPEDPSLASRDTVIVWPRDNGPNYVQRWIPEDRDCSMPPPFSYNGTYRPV
Description: Activity on recombinant human DAO, Amplex Red method, 1 mM putrescine substrate. Particulars: recombinant human DAO, read-out: Inhibitory Activity (IC50, nM) DAO. In outline:
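Inhibition of recombinant human DAO (diamine oxidase, R&D systems) was assessed with the Amplex Red Hydrogen Peroxide Assay Kit. Hydrogen peroxide produced from 1 mM putrescine was detected through an HRP-coupled reaction that converts Amplex Red into fluorescent resorufin, read at 544 nm excitation and 590 nm emission. IC50 values came from four-parameter logistic fits in GraphPad Prism.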

Where [4] appears, read: 1 mM putrescine, * = between 10 and 100 nM, ** = between 300 and 1000 nM.

For `NC/C(=C\F)Cn1ncn(-c2cccc(Br)c2)c1=O` [Example 4, 2-[(2E)-2-(aminomethyl)-3-fluoroprop-2-en-1-yl]-4-(3-bromophenyl)-2,4-dihydro-3H-1,2,4-triazol-3-one hydrochloride], the IC50 in assay [1] (1 mM benzylamine) was 175 nM; at recombinant human VAP-1 (30 min preincubation at 37° C.), 1.2 nM; in assay [2] (0.5 mM tyramine) it was > 100000 nM; in assay [3] (setting [4]) it was 90 nM.

As to `NC/C(=C\F)Cn1ncn(-c2cc(-c3ccc4nonc4c3)ccn2)c1=O` [Example 172, 2-[(2E)-2-(aminomethyl)-3-fluoroprop-2-en-1-yl]-4-[4-(2,1,3-benzooxadiazol-5-yl)pyridin-2-yl]-2,4-dihydro-3H-1,2,4-triazol-3-one], the 50% inhibitory concentration (IC50) in assay [1] (1 mM benzylamine substrate) is 9070 nM; at recombinant human VAP-1 it was 0.67 nM; in assay [2] (0.5 mM tyramine substrate), > 100000 nM; in assay [3] (1 mM putrescine substrate), < 30 nM.

Turning to `NC/C(=C\F)Cn1ncn(-c2cccc(-c3ccc(-c4noc(C5CC5)n4)cc3)n2)c1=O` [Example 178, 2-[(2E)-2-(aminomethyl)-3-fluoroprop-2-en-1-yl]-4-{6-[4-(5-cyclopropyl-1,2,4-oxadiazol-3-yl)phenyl]pyridin-2-yl}-2,4-dihydro-3H-1,2,4-triazol-3-one hydrochloride], the half-inhibitory concentration (IC50) in assay [1] (1 mM benzylamine substrate) is 5490 nM; at recombinant human VAP-1 it was 1.4 nM; in assay [2] (0.5 mM tyramine substrate) it was 74000 nM; in assay [3] (1 mM putrescine substrate) it was < 10 nM.

For the compound `Cc1cc(-c2ccc3nonc3c2)cnc1-n1cnn(C/C(=C/F)CN)c1=O` [Example 152, 2-[(2E)-2-(aminomethyl)-3-fluoroprop-2-en-1-yl]-4-[5-(2,1,3-benzooxadiazol-5-yl)-3-methylpyridin-2-yl]-2,4-dihydro-3H-1,2,4-triazol-3-one hydrochloride], the 50% inhibitory concentration (IC50) in assay [1] (1 mM benzylamine substrate) is 314 nM; at recombinant human VAP-1, 0.5 nM; in assay [2] (0.5 mM tyramine substrate), 7420 nM; in assay [3] (1 mM putrescine substrate), 1300 nM.

Take `CN(C)c1ccc(-c2cccc(-n3cnn(C/C(=C/F)CN)c3=O)n2)cn1` [Example 188, 2-[(2E)-2-(aminomethyl)-3-fluoroprop-2-en-1-yl]-4-[6′-(dimethylamino)-2,3′-bipyridin-6-yl]-2,4-dihydro-3H-1,2,4-triazol-3-one hydrochloride]: the 50% inhibitory concentration (IC50) in assay [1] (1 mM benzylamine substrate) was 23000 nM; at recombinant human VAP-1 it was 0.6 nM; in assay [2] (0.5 mM tyramine substrate), > 100000 nM; in assay [3] (1 mM putrescine substrate) it was 4 nM.

As for `NC/C(=C\F)Cn1ncn(-c2cnc(-c3ccc(N4CCOCC4)nc3)cn2)c1=O` [Example 221, 2-[(2E)-2-(aminomethyl)-3-fluoroprop-2-en-1-yl]-4-{5-[6-(morpholin-4-yl)pyridin-3-yl]pyrazin-2-yl}-2,4-dihydro-3H-1,2,4-triazol-3-one], the IC50 in assay [1] (1 mM benzylamine substrate) is 650 nM; at recombinant human VAP-1, 1.9 nM; in assay [2] (0.5 mM tyramine substrate), > 100000 nM; in assay [3] (1 mM putrescine substrate), < 100 nM.

For the compound `CS(=O)(=O)c1ccc(-c2ccc(-n3cnn(C/C(=C\F)CN)c3=O)nc2)cc1` [Example 129, 2-[(2Z)-2-(aminomethyl)-3-fluoroprop-2-en-1-yl]-4-{5-[4-(methylsulfonyl)phenyl]pyridin-2-yl}-2,4-dihydro-3H-1,2,4-triazol-3-one hydrochloride], the IC50 was 10 nM in assay [1] (1 mM benzylamine), 0.45 nM on recombinant human VAP-1 (30 min preincubation at 37° C.), > 100000 nM in assay [2] (0.5 mM tyramine) and < 1 nM in assay [3] (setting [4]).

Turning to `NC/C(=C\F)Cn1ncn(-c2cccc(-c3cccc(-c4noc(C5CC5)n4)c3)n2)c1=O` [Example 179, 2-[(2E)-2-(aminomethyl)-3-fluoroprop-2-en-1-yl]-4-{6-[3-(5-cyclopropyl-1,2,4-oxadiazol-3-yl)phenyl]pyridin-2-yl}-2,4-dihydro-3H-1,2,4-triazol-3-one hydrochloride], the IC50 in assay [1] (1 mM benzylamine substrate) was 390 nM; at recombinant human VAP-1, 1.1 nM; in assay [2] (0.5 mM tyramine substrate), 270000 nM; in assay [3] (1 mM putrescine substrate), 3.1 nM.

Broadly, the IC50 is the concentration at which inhibition is half-maximal.
